US8632767B2, “3-[1-(3-haloalkyl)triazolyl]phenyl sulphide derivatives as acaricides and insecticides” (Bayer Intellectual Property GmbH, priority 2009, dated 2014)

Key:
[1] = log P by HPLC on reversed-phase C18, eluent variant not stated; assay type: physicochemical; conditions: reversed-phase C18 HPLC column
Method: (§1) The log P values reported in the table above and in the preparation examples were determined in accordance with EEC Directive 79/831 Annex V.A8 by HPLC (High Performance Liquid Chromatography) on reversed-phase columns (C18), with the following methods: Calibration took place with unbranched alkan-2-ones (having 3 to 16 carbon atoms) of known log P values (log P values determined from the retention times by linear interpolation between two successive alkanones).

[2] = tested on: greenhouse red spidermite (Tetranychus urticae); experiment: Tetranychus test; OP resistant (TETRUR spray treatment), Example 5, comparison with prior art; assay type: in vivo; conditions: 20 g/ha, 6d
Method: (§2) Solvents: 78.0 parts by weight of acetone • • 1.5 parts by weight of dimethylformamide Emulsifier: 0.5 part by weight of alkylaryl polyglycol ether An appropriate preparation of active compound is prepared by mixing 1 part by weight of active compound with the stated amounts of solvent and emulsifier and diluting the concentrate with emulsifier-containing water to the desired concentration. Leaf discs of bean (Phaseolus vulgaris) infested by all stages of the greenhouse red spidermite (Tetranychus urticae) are sprayed with a preparation of active compound at the desired concentration. After the desired time, the effect in % is determined. Here, 100% means that all of the mites have been killed; 0% means that no mites have been killed.

[3] = tested on: greenhouse red spidermite (Tetranychus urticae); experiment: Tetranychus test; OP resistant (TETRUR spray treatment), Example 3; assay type: in vivo; conditions: foliar, 144 h, spray on bean leaf discs, after 6 days, read-out: effect (mites killed)
Method: as §2, with “6 days,” for “the desired time,”

[4] = log P by HPLC on reversed-phase C18, LC-MS, pH 2.7, formic acid (HCOOH); assay type: physicochemical; conditions: reversed-phase C18 HPLC column; HPLC C18, pH 2.7, 0.1% aqueous formic acid/acetonitrile
Method: as §1, with “methods: ^[b] The determination is made by LC-MS in the acid range at pH 2.7 with 0.1% aqueous formic acid and acetonitrile (containing 0.1% formic acid) as eluents; linear gradient from 10% acetonitrile to 95% acetonitrile.” for “methods:”

Boophilus microplus = Boophilus microplus test (BOOPMI injection); assay type: in vivo; conditions: Rhipicephalus microplus, 168 h; 20 μg/animal, injection into abdomen, after 7 days; read-out: activity (no fertile eggs laid)
Method: Solvent: Dimethyl Sulphoxide An appropriate preparation of active compound is prepared by mixing 10 mg of active compound with 0.5 ml of solvent and diluting the concentrate with solvent to the desired concentration. The solution of active compound is injected into the abdomen (Boophilus microplus) and the animals are transferred into dishes and kept in a controlled atmosphere. The activity is assessed on the basis of deposition of fertile eggs. After 7 days, the effect in % is determined. Here, 100% means that none of the ticks has laid fertile eggs.

Meloidogyne incognita = Meloidogyne incognita test (MELGIN); assay type: in vivo; conditions: 20 ppm, lettuce in sand, after 14 days
Method: Solvents: 78.0 parts by weight of acetone • • 1.5 parts by weight of dimethylformamide Emulsifier: 0.5 part by weight of alkylaryl polyglycol ether An appropriate preparation of active compound is prepared by mixing 1 part by weight of active compound with the stated amounts of solvent and emulsifier and diluting the concentrate with water to the desired concentration. Pots are filled with sand, solution of active compound, meloidogyne incognita egg/larvae suspension, and lettuce seeds. The lettuce seeds germinate and the plants develop. On the roots, the galls develop. After 14 days, the nematicidal effect is determined from the gall formation, in %. Here, 100% means that no galls were found; 0% means that the number of galls on the treated plants corresponds to that for the untreated control.

[5] = tested on: larvae of the mustard beetle (Phaedon cochleariae); experiment: Phaedon test (PHAECO spray treatment); assay type: in vivo; conditions: foliar, 168 h, spray on Chinese cabbage leaf discs, after 7 days, read-out: effect (beetle larvae killed)
Method: Solvents: 78.0 parts by weight of acetone • • 1.5 parts by weight of dimethylformamide Emulsifier: 0.5 part by weight of alkylaryl polyglycol ether An appropriate preparation of active compound is prepared by mixing 1 part by weight of active compound with the stated amounts of solvent and emulsifier and diluting the concentrate with emulsifier-containing water to the desired concentration. Leaf discs of Chinese cabbage (Brassica pekinensis) are sprayed with a preparation of active compound at the desired concentration and, after they have dried, are populated with larvae of the mustard beetle (Phaedon cochleariae). After 7 days, the effect in % is determined. Here, 100% means that all of the beetle larvae have been killed; 0% means that no beetle larvae have been killed.

[6] = log P by HPLC on reversed-phase C18, pH 2.3, phosphoric acid (H3PO4); assay type: physicochemical; conditions: reversed-phase C18 HPLC column; HPLC C18, pH 2.3, 0.1% aqueous phosphoric acid/acetonitrile
Method: as §1, with “methods: ^[a] The determination is made in the acid range at pH 2.3 with 0.1% aqueous phosphoric acid and acetonitrile as eluents; linear gradient from 10% acetonitrile to 95% acetonitrile.” for “methods:”

chromatographic logP [1] | chromatographic logP [4] | chromatographic logP [6] | Compound | % effect after application [2] | pest or weed control at 500 g/ha [3] [%] | pest or weed control at 0.02 mg (Boophilus microplus) [%] | nematicidal effect (gall formation) (Meloidogyne incognita) [%] | pest or weed control at 100 g/ha [3] [%] | pest or weed control at 500 g/ha [5] [%]
1.8 |  |  | Cc1ccc(NNC(=O)C(F)F)c(C)c1 [N′-(2,4-Dimethylphenyl)-2,2-difluoroacetohydrazide] |  |  |  |  |  | 
 |  |  | Cc1cc(C)c(-n2cnc(C(F)(F)F)n2)cc1SCC(F)(F)F [VI-297, reference compound] | 70 6d % |  |  |  |  | 
 | 3.33 |  | Cc1cc(C)c(-n2cnc(C(F)F)n2)cc1SCC(F)(F)F [I-A-2, 3-(Difluoromethyl)-1-{2,4-dimethyl-5-[(2,2,2-trifluoroethyl)sulphanyl]phenyl}-1H-1,2,4-triazole] | 100 6d % | 100 | 100 | 100 |  | 
 | 2.39 |  | [O-][S+](CC(F)(F)F)c1cc(-n2cnc(C(F)F)n2)ccc1Cl (stereo not shown) [I-A-27] |  |  | 100 | 100 | 100 | 100
 | 3.28 |  | Cc1cc(F)c(-n2cnc(C(F)F)n2)cc1SCC(F)(F)F [I-A-30] |  |  |  | 90 | 100 | 100
 | 2.1 |  | Cc1ccc(-n2cnc(C(F)F)n2)cc1[S+]([O-])CC(F)(F)F (stereo not shown) [I-A-16] |  |  |  | 100 | 100 | 100
 | 2.12 |  | Cc1cc(F)c(-n2cnc(C(F)F)n2)cc1[S+]([O-])CC(F)(F)F (stereo not shown) [I-A-15] |  | 100 |  | 90 |  | 100
 | 3.28 |  | FC(F)c1ncn(-c2ccc(Cl)c(SCC(F)(F)F)c2)n1 [I-A-9] |  |  | 100 | 100 | 100 | 100
 | 3.02 | 3.06 | Cc1cc(C)c(-n2cnc(C(F)F)n2)cc1SCC(F)F [I-A-1] |  |  | 100 |  | 100 | 
 | 2.19 |  | Cc1cc(C)c([S+]([O-])CC(F)(F)F)cc1-n1cnc(C(F)F)n1 (stereo not shown) [I-A-4, 3-(Difluoromethyl)-1-{2,4-dimethyl-5-[(2,2,2-trifluoroethyl)sulphinyl]phenyl}-1H-1,2,4-triazole] |  |  | 100 | 100 | 100 | 
